Measured values published in patent US20040162221A1, “Pyrazole derivatives and herbicides containing the same” (IDEMITSU KOSAN CO., LTD., priority 1998, published 2004).

Assays:
redroot pigweed [1] = experiment: Upland post-emergence treatment test, redroot pigweed; assay type: in vivo, redroot pigweed (Amaranthus retroflexus); conditions: for Herbicidal Efficacy CC = Redroot Pigweed: post-emergence spray at 3-4 leaf stage, 80 g/ha, 30th day after treatment, greenhouse; for herbicidal efficacy against redroot pigweed (in words): post-emergence, Tables 8 and 9; on Herbicidal Efficacy CC = Redroot Pigweed: ranges in brackets are in %
Summary of the method: (§1)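 Plants in upland soil at the 3-4 leaf stage, greenhouse-grown, were sprayed on foliage at 2,000 L/ha with a water suspension of 10% wettable-powder formulation. Efficacy assessed 30 days after treatment as remaining plant weight relative to the untreated plot (×100).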

common lambsquaters = experiment: Upland pre-emergence treatment test, common lambsquaters; assay type: in vivo, common lambsquaters (Chenopodium album); conditions: pre-emergence soil surface spray, 80 g/ha, 20th day after treatment, greenhouse; further: ranges in brackets are in %
Source text: (§2) 97 Parts by weight of talc (trade name: Zeaklite, supplied by Zeaklite Industry) as a carrier, 1.5 parts by weight of alkylarylsulfonic acid salt (trade name: Neoplex, supplied by Kao-Atlas K.K.) as a surfactant and 1.5 parts by weight of a nonionic and anionic surfactant (trade names Sorpol 800A, supplied by Toho Chemical Co., Ltd.) were uniformly pulverized and mixed to prepare a carrier for a wettable powder.
(§3) 90 Parts by weight of the above carrier for a wettable powder and 10 parts by weight of one of the compounds of the present invention were uniformly pulverized and mixed to obtain herbicides. Further, in Comparative Herbicide Examples, comparative herbicides were also prepared from the following compounds (A) and (B) in the same manner.
(§4) Herbicidal efficacy and phytotoxicity to crops were determined on the basis of the ratio of remaining plant weight to plant weight in non-treated plot=(remaining plant weight in treated plot/plant weight in non-treated-plot)×100. The ratings were applied to the following biological tests.
(§5) Seeds of weeds such as velvetleaf, common lambsquaters, redroot pigweed, common ragweed, green foxtail and large crabgrass and seeds of corn were sown in 1/5,000-are Wagner pots filled with upland soil, and covered with upland soil. Then, a predetermined amount of the herbicide prepared in the above (1) was suspended in water, and the suspension was uniformly sprayed onto the soil surface at a rate of 2,000 liters/hectare. Then, the seeds were grown in a greenhouse, and on the 20th day after the treatment, the herbicide was evaluated for herbicidal efficacy and phytotoxicity to corn on the basis of the ratings shown in (2).

redroot pigweed [2] = experiment: Upland pre-emergence treatment test, redroot pigweed; assay type: in vivo, redroot pigweed (Amaranthus retroflexus); conditions: for Herbicidal Efficacy CC = Rough Pigweed: pre-emergence soil surface spray, 80 g/ha, 20th day after treatment, greenhouse; for herbicidal efficacy against redroot pigweed (in words): pre-emergence, text summary of Table 7; on Herbicidal Efficacy CC = Rough Pigweed: ranges in brackets are in %
Source text: as §2, §3, §4, §5

velvetleaf [3] = experiment: Upland pre-emergence treatment test, velvetleaf; assay type: in vivo, velvetleaf (Abutilon theophrasti); conditions: for Herbicidal Efficacy AA = Velvetleaf: pre-emergence soil surface spray, 80 g/ha, 20th day after treatment, greenhouse; on Herbicidal Efficacy AA = Velvetleaf: ranges in brackets are in %
Source text: as §2, §3, §4, §5

common ragweed [4] = experiment: Upland pre-emergence treatment test, common ragweed; assay type: in vivo, common ragweed (Ambrosia artemisilfolia); conditions: for Herbicidal Efficacy DD = Common ragweed: pre-emergence soil surface spray, 80 g/ha, 20th day after treatment, greenhouse; on Herbicidal Efficacy DD = Common ragweed: ranges in brackets are in %
Source text: as §2, §3, §4, §5

large crabgrass [5] = experiment: Upland post-emergence treatment test, large crabgrass; assay type: in vivo; conditions: post-emergence spray at 3-4 leaf stage, 80 g/ha, 30th day after treatment, greenhouse; further: ranges in brackets are in %
Summary of the method: as §1

common ragweed [6] = experiment: Upland post-emergence treatment test, common ragweed; assay type: in vivo, common ragweed (Ambrosia artemisilfolia); conditions: post-emergence spray at 3-4 leaf stage, 80 g/ha, 30th day after treatment, greenhouse; further: ranges in brackets are in %
Summary of the method: as §1

velvetleaf [7] = experiment: Upland post-emergence treatment test, velvetleaf; assay type: in vivo, velvetleaf (Abutilon theophrasti); conditions: for Herbicidal Efficacy AA = Velvetleaf: post-emergence spray at 3-4 leaf stage, 80 g/ha, 30th day after treatment, greenhouse; on Herbicidal Efficacy AA = Velvetleaf: ranges in brackets are in %
Summary of the method: as §1

green foxtail [8] = experiment: Upland post-emergence treatment test, green foxtail; assay type: in vivo, green foxtail (Setaria viridis); conditions: post-emergence spray at 3-4 leaf stage, 80 g/ha, 30th day after treatment, greenhouse; further: ranges in brackets are in %
Summary of the method: as §1

corn [9] = experiment: Upland post-emergence treatment test, phytotoxicity to corn; assay type: in vivo; conditions: post-emergence spray at 3-4 leaf stage, 80 g/ha, 30th day after treatment, greenhouse; further: ranges in brackets are in %
Summary of the method: as §1

corn [10] = experiment: Upland pre-emergence treatment test, phytotoxicity to corn; assay type: in vivo; conditions: pre-emergence soil surface spray, 80 g/ha, 20th day after treatment, greenhouse; further: ranges in brackets are in %
Source text: as §2, §3, §4, §5

large crabgrass [11] = experiment: Upland pre-emergence treatment test, large crabgrass; assay type: in vivo; conditions: pre-emergence soil surface spray, 80 g/ha, 20th day after treatment, greenhouse; further: ranges in brackets are in %
Source text: as §2, §3, §4, §5

green foxtail [12] = experiment: Upland pre-emergence treatment test, green foxtail; assay type: in vivo, green foxtail (Setaria viridis); conditions: pre-emergence soil surface spray, 80 g/ha, 20th day after treatment, greenhouse; further: ranges in brackets are in %
Source text: as §2, §3, §4, §5

[13] = pre-emergence, text summary of Table 7

CCCS(=O)(=O)Oc1c(C(=O)c2cc(C)c3c(c2C)C(C)(C)CS3(=O)=O)cnn1CC [Compound (A), reference compound]
Herbicidal Efficacy CC = Redroot Pigweed (redroot pigweed [1]): 0 (81-100) | herbicidal efficacy against redroot pigweed (in words) (redroot pigweed [1]): clearly poor | Herbicidal Efficacy BB = Common lambsquaters (common lambsquaters): 2 (41-60) | Herbicidal Efficacy CC = Rough Pigweed (redroot pigweed [2]): 0 (81-100) | herbicidal efficacy against redroot pigweed (in words) (redroot pigweed [2]): clearly poor | Herbicidal Efficacy AA = Velvetleaf (velvetleaf [3]): 2 (41-60) | Herbicidal Efficacy DD = Common ragweed (common ragweed [4]): 1 (61-80) | Herbicidal Efficacy FF = Large crabgrass (large crabgrass [5]): 1 (61-80) | Herbicidal Efficacy DD = Common ragweed (common ragweed [6]): 2 (41-60) | Herbicidal Efficacy AA = Velvetleaf (velvetleaf [7]): 2 (41-60) | Herbicidal Efficacy EE = Green foxtail (green foxtail [8]): 1 (61-80) | Phytotoxicity Corn (corn [9]): − (100) | Phytotoxicity Corn (corn [10]): − (100) | Herbicidal Efficacy FF = Large crabgrass (large crabgrass [11]): 1 (61-80) | Herbicidal Efficacy EE = Green foxtail (green foxtail [12]): 1 (61-80)

CCn1ncc(C(=O)c2cc(C)c3c(c2C)C(C)CS3(=O)=O)c1O (stereo not drawn) [Compound (B), reference compound]
Herbicidal Efficacy CC = Redroot Pigweed (redroot pigweed [1]): 2 (41-60) | herbicidal efficacy against redroot pigweed (in words) (redroot pigweed [1]): inferior | Herbicidal Efficacy BB = Common lambsquaters (common lambsquaters): 4 (1-20) | Herbicidal Efficacy CC = Rough Pigweed (redroot pigweed [2]): 1 (61-80) | herbicidal efficacy against redroot pigweed (in words) (redroot pigweed [2]): inferior | Herbicidal Efficacy AA = Velvetleaf (velvetleaf [3]): 1 (61-80) | herbicidal efficacy against velvetleaf (in words) (velvetleaf [3]; [13]): inferior | Herbicidal Efficacy DD = Common ragweed (common ragweed [4]): 2 (41-60) | herbicidal efficacy against common ragweed (in words) (common ragweed [4]; [13]): inferior | Herbicidal Efficacy FF = Large crabgrass (large crabgrass [5]): 5 (0) | Herbicidal Efficacy DD = Common ragweed (common ragweed [6]): 5 (0) | Herbicidal Efficacy AA = Velvetleaf (velvetleaf [7]): 2 (41-60) | herbicidal efficacy against velvetleaf (in words) (velvetleaf [7]; post-emergence, Tables 8 and 9): inferior | Herbicidal Efficacy EE = Green foxtail (green foxtail [8]): 4 (1-20) | Phytotoxicity Corn (corn [9]): ++ (80-89) | Phytotoxicity Corn (corn [10]): − (100) | Herbicidal Efficacy FF = Large crabgrass (large crabgrass [11]): 5 (0) | Herbicidal Efficacy EE = Green foxtail (green foxtail [12]): 5 (0)
